Values after ≈ are worked out from the molar mass of the structure shown.
Conditions: for aqueous solubility: pH 6.8

Compound	MDR1-MDCK efflux ratio	intrinsic clearance, human liver microsomes	intrinsic clearance, rat liver microsomes	aqueous solubility	fraction unbound, human plasma	fraction unbound, rat plasma
COc1ccc2nc(C)nc(N3CC(CO)C3)c2c1	11.5	5.26 mL/min/kg	13.6 mL/min/kg	29.3 µg/mL (≈ 113 µM)		
CC(C)NC(=O)CN(C)c1ccc(Cl)c(C#N)n1		≤ 4.74 mL/min/kg	87.1 mL/min/kg			
Cc1ccc(NC(=O)OCC(F)(F)F)cn1	0.584	≤ 4.74 mL/min/kg	35.2 mL/min/kg			
CN(C)S(=O)(=O)CCCN1CCc2ccccc2CC1	0.6	15.9 mL/min/kg	716 mL/min/kg			
CC(C)CCN1CCC(CNS(C)(=O)=O)CC1	2.43	≤ 4.74 mL/min/kg	≤ 10.7 mL/min/kg			
O=c1cc2c(n[nH]1)-c1cnc(N3CCCCC3)nc1CC2	0.565	4.86 mL/min/kg	110 mL/min/kg			
Cc1ccc(S(=O)(=O)Cc2nc(-c3ccc(C(=O)NCc4cccnc4)cc3)oc2C)cc1	56.4			0.33 µg/mL (≈ 0.715 µM)		
N#Cc1nc(-c2ccccc2)oc1NCc1ccc2c(c1)OCO2		208 mL/min/kg	707 mL/min/kg			
CC(C)c1nccn1Cc1nc(-c2cccs2)no1		13.6 mL/min/kg	1930 mL/min/kg			
CN(C(=O)c1cccc(C(=O)O)c1)c1ccccc1		≤ 4.74 mL/min/kg	≤ 10.7 mL/min/kg			
Cc1ccccc1CS(=O)(=O)c1ncc(Cl)c(C(=O)Nc2sc3c(c2C#N)CCCC3)n1		568 mL/min/kg	2120 mL/min/kg			
C[C@H]1NC(=O)N(CCc2nc(C(F)(F)F)cs2)C1=O	1.6	5.83 mL/min/kg	24.8 mL/min/kg			
Cc1ncccc1NC(=O)OC(C)(C)C	0.755	≤ 4.74 mL/min/kg	21.1 mL/min/kg			
COC(=O)C1=NOC2(CCN(CCCCCF)CC2)C1	0.463	199 mL/min/kg	713 mL/min/kg			
CCc1cccc(C)c1NC(=O)c1ccc(C)o1	0.661	≤ 4.74 mL/min/kg	172 mL/min/kg			
CC(C)c1cc(N(C)Cc2nc(C3CC3)n[nH]2)n[nH]1	16.1	≤ 4.74 mL/min/kg	36.7 mL/min/kg			
Cc1nc(C2CCNCC2)cc(N(C)C)n1	4.51	≤ 4.74 mL/min/kg	≤ 10.7 mL/min/kg	38.5 µg/mL (≈ 175 µM)		
Fc1ccc2[nH]c(CO[C@H]3CN(Cc4ccccc4)C[C@H]3F)nc2c1	0.885	88.9 mL/min/kg	971 mL/min/kg	35.4 µg/mL (≈ 103 µM)		
Nc1ccccc1OCCn1ccnc1	0.815	7.07 mL/min/kg	30.6 mL/min/kg	24.7 µg/mL (≈ 121 µM)		
N#CCCN(C(=O)c1sccc1C#N)C12CC3CC(CC(C3)C1)C2	1.16	320 mL/min/kg	1600 mL/min/kg	7.8 µg/mL (≈ 23 µM)		
O=C(CC1CCNCC1)NCCc1ccccc1F	8.79	≤ 4.74 mL/min/kg	21.9 mL/min/kg	58.5 µg/mL (≈ 221 µM)		
Nc1ncccc1OCc1cccc(Cl)c1		157 mL/min/kg	721 mL/min/kg			
O=C(c1noc2c1CCCC2)N1CCN(c2ncccn2)CC1	0.624	10.3 mL/min/kg	2910 mL/min/kg	53.3 µg/mL (≈ 170 µM)		
Cc1ccc(C)c2c(O)cc(CN3CC(c4ccccn4)C3)nc12	4.2	36.5 mL/min/kg	1050 mL/min/kg	58.3 µg/mL (≈ 183 µM)		
CC(C)(O)Cn1nc(-c2ccccc2)c2c(Cl)c(-c3ccccc3)nnc21	0.725	≤ 4.74 mL/min/kg	85.5 mL/min/kg			
CCn1cnnc1C1CCCN(c2ncnc3sc(-c4ccccc4)cc23)C1 (configuration not stated)				34.8 µg/mL (≈ 89 µM)		
OCC1CCCCN1Cc1ccc(-c2ccccc2)cc1 (configuration not stated)	0.708	20.6 mL/min/kg	2220 mL/min/kg	41.7 µg/mL (≈ 148 µM)	0.233	0.248
COc1ccc(C)cc1-n1ccc(C(=O)Nc2c3c(nn2C)CCC3)n1	1.45	46.5 mL/min/kg	255 mL/min/kg	33.2 µg/mL (≈ 94.5 µM)		

The next lines start with the values.

MDR1-MDCK efflux ratio	intrinsic clearance, human liver microsomes	intrinsic clearance, rat liver microsomes	aqueous solubility	fraction unbound, human plasma	fraction unbound, rat plasma	Compound
3.8	≤ 4.74 mL/min/kg	62.9 mL/min/kg				Cc1ccc(NC(=O)CN2C(=O)CN(C)C2=O)cc1C
2.62	7.54 mL/min/kg	≤ 10.7 mL/min/kg	56.7 µg/mL (≈ 215 µM)			CC(=O)Nc1cccc(OC(=O)N2CCOCC2)c1
126	6.14 mL/min/kg	25.1 mL/min/kg				COCCOc1cnc2ccn([C@H](C)c3nnc4c(F)cc(-c5cnn(C)c5)cn34)c(=O)c2c1
47.6	329 mL/min/kg	1410 mL/min/kg	32.6 µg/mL (≈ 106 µM)			CC(C)C[C@@H](C(N)=O)n1ccnc1-c1cccc2ccccc12
0.716	359 mL/min/kg	1950 mL/min/kg	55.5 µg/mL (≈ 154 µM)			COc1ccccc1NC(=O)CN1CCCN(c2nc(C)cs2)CC1
11.8	≤ 4.74 mL/min/kg	13.3 mL/min/kg				CC(C)(O)CCn1cc2cc(NC(=O)c3ccn(C(F)F)n3)c(OCC3COC3)cc2n1
1.26	≤ 4.74 mL/min/kg	138 mL/min/kg				COc1cccc(Oc2ccc(NC(=O)CN3CCOCC3)cn2)c1
10.1						COc1cc2c(cc1OC)CN(C(=O)C1CCCN(C(=O)c3ccc(Cl)cc3)C1)CC2 (configuration not stated)
2.59	75.9 mL/min/kg	519 mL/min/kg	29.1 µg/mL (≈ 58.7 µM)			COc1cc(Br)c(Nc2nc(-c3c(C)nc4ncccn34)cs2)c(Br)c1
1.83	21.5 mL/min/kg	1510 mL/min/kg	49.3 µg/mL (≈ 117 µM)			COc1ccc(C(=O)c2ccccc2)c(Oc2nc3c(c(=O)n(C)c(=O)n3C)n2C)c1
3.34	19.2 mL/min/kg	51.7 mL/min/kg	8.44 µg/mL (≈ 22.4 µM)			COc1ccc(CN2CCc3nc(-c4cccnc4)nc(O)c3C2)c(C)c1C
	≤ 4.74 mL/min/kg	≤ 10.7 mL/min/kg				Cn1c(=O)cc(N2CCC[C@@H](N)C2)n(Cc2cc(F)ccc2C#N)c1=O
20	22.2 mL/min/kg	721 mL/min/kg				O=C(Nc1ccncc1)[C@H]1CCCN(S(=O)(=O)c2ccc(Cl)cc2)C1
	57 mL/min/kg	960 mL/min/kg	49.5 µg/mL (≈ 162 µM)			CSCC(=O)N1CCc2[nH]nc(-c3cccc(F)c3)c2C1
	58.2 mL/min/kg	145 mL/min/kg				COc1c(C)cnc(Cn2cc(C#CCC(C)(C)O)c3c(Cl)nc(N)nc32)c1C
3.5	≤ 4.74 mL/min/kg	34 mL/min/kg	21.9 µg/mL (≈ 80.9 µM)			CCCc1nnc(NCc2cn3ccc(C)cc3n2)o1
31.2	≤ 4.74 mL/min/kg	≤ 10.7 mL/min/kg				CCN(CCO)Cc1nc2cc(OC)c(OC)cc2c(=O)[nH]1
0.905	≤ 4.74 mL/min/kg	363 mL/min/kg				Cn1cc(CNc2ncccn2)c(C(C)(C)C)n1
11.6	7.72 mL/min/kg	126 mL/min/kg				CN(CC1CCC1)C(=O)C1CCN(c2ccc3nncn3n2)CC1
0.783	≤ 4.74 mL/min/kg	≤ 10.7 mL/min/kg	83.3 µg/mL (≈ 278 µM)			CC1(C)CN(C(=O)c2cncc(Br)c2)CCO1
28.5	50.3 mL/min/kg	874 mL/min/kg	59.6 µg/mL (≈ 133 µM)			Cc1nc(N)c2c(C(F)(F)F)cc(C3CCN(C(=O)Cc4ccc(F)cc4)CC3)nc2n1
	≤ 4.74 mL/min/kg	≤ 10.7 mL/min/kg				CONC(=O)c1c2c(nc3ccccc13)CCC2
117	≤ 4.74 mL/min/kg	26.8 mL/min/kg	48 µg/mL (≈ 141 µM)			Cc1ccccc1-n1c(CC2CCN(C(=O)C3CC3)CC2)n[nH]c1=O
0.809	14 mL/min/kg	34.4 mL/min/kg	26 µg/mL (≈ 128 µM)			C#CCNC(=O)c1ccc2c(c1)OCO2
0.373	95.8 mL/min/kg	665 mL/min/kg				CC(=O)Nc1ccccc1OCCOc1ccc(Cl)cc1
0.67	6.52 mL/min/kg	129 mL/min/kg	2.33 µg/mL (≈ 7.92 µM)			Cc1ccc(C)c(C(=O)Nc2cnc3c(c2)c(C)nn3C)c1
0.634	19.3 mL/min/kg	54.3 mL/min/kg				Cc1nc(-c2ccccc2)nc(O)c1C
0.714	33.3 mL/min/kg	2550 mL/min/kg				COCc1ccc(SCC(=O)NC2CCCC2)cc1
50.3	169 mL/min/kg		43.9 µg/mL (≈ 102 µM)	0.00604	0.00729	CCCc1nc2nc(C)c(NS(=O)(=O)c3ccc(C4CCCCC4)cc3)c(O)n2n1
5.94	16.3 mL/min/kg	867 mL/min/kg	83.4 µg/mL (≈ 210 µM)			COc1ccc(CCC(=O)N2CCN(C(=O)c3cc4n(n3)CCCC4)CC2)cc1
